Details: Liquid

C=C(F)C(F)(F)F [2,3,3,3-tetrafluoro-1-propene]
Details | mass density [kg/m3]
217.44 K, 14681 kPa, isochoric method | 1363.7
218.27 K, 962.6 kPa, isochoric method | 1333.8
219.23 K, 2020.3 kPa, isochoric method | 1333.7
220.22 K, 3106.5 kPa, isochoric method | 1333.6
221.18 K, 4140.3 kPa, isochoric method | 1333.5
221.97 K, 20077 kPa, isochoric method | 1363.2
222.06 K, 5097 kPa, isochoric method | 1333.4
226.65 K, 10087 kPa, isochoric method | 1332.9
226.93 K, 25988 kPa, isochoric method | 1362.7
230.27 K, 29902 kPa, isochoric method | 1362.4
231.25 K, 15017 kPa, isochoric method | 1332.4
231.72 K, 1001.1 kPa, isochoric method | 1298.5
232.84 K, 2093.9 kPa, isochoric method | 1298.4
233.76 K, 2987 kPa, isochoric method | 1298.2
234.77 K, 35121 kPa, isochoric method | 1361.9
234.92 K, 4113.3 kPa, isochoric method | 1298.2
236.02 K, 20027 kPa, isochoric method | 1332
236.13 K, 5205.1 kPa, isochoric method | 1298
240.49 K, 24777 kPa, isochoric method | 1331.5
241.06 K, 10038 kPa, isochoric method | 1297.5
245.59 K, 30165 kPa, isochoric method | 1331
246.22 K, 14993 kPa, isochoric method | 1297.1
250.28 K, 35113 kPa, isochoric method | 1330.6
251.43 K, 19983 kPa, isochoric method | 1296.6
251.62 K, 971.2 kPa, isochoric method | 1243.5
252.83 K, 1949.3 kPa, isochoric method | 1243.4
254.25 K, 3101.8 kPa, isochoric method | 1243.3
254.96 K, 39964 kPa, isochoric method | 1330.1
255.48 K, 4096.7 kPa, isochoric method | 1243.2
256.7 K, 5077.8 kPa, isochoric method | 1243.1
256.72 K, 25008 kPa, isochoric method | 1296.1
261.89 K, 29860 kPa, isochoric method | 1295.6
262.98 K, 10262 kPa, isochoric method | 1242.5
267.49 K, 35084 kPa, isochoric method | 1295.1
269.01 K, 15092 kPa, isochoric method | 1242
269.39 K, 1033.4 kPa, isochoric method | 1191.1
270.88 K, 2044.5 kPa, isochoric method | 1190.9
272.34 K, 3041.1 kPa, isochoric method | 1190.8
272.52 K, 39731 kPa, isochoric method | 1294.7
273.79 K, 4025.5 kPa, isochoric method | 1190.7
275.28 K, 5036.3 kPa, isochoric method | 1190.6
275.31 K, 20033 kPa, isochoric method | 1241.4
282.03 K, 25427 kPa, isochoric method | 1240.8
282.83 K, 10183 kPa, isochoric method | 1189.9
282.95 K, 1036 kPa, isochoric method | 1147.5
284.62 K, 2015.3 kPa, isochoric method | 1147.4
286.31 K, 3030.5 kPa, isochoric method | 1147.2
287.71 K, 29892 kPa, isochoric method | 1240.4
287.89 K, 3962.5 kPa, isochoric method | 1147.1
289.95 K, 15007 kPa, isochoric method | 1189.4
289.99 K, 5188 kPa, isochoric method | 1146.9
294.1 K, 34879 kPa, isochoric method | 1239.8
297.11 K, 19748 kPa, isochoric method | 1188.8
297.15 K, 1034.7 kPa, isochoric method | 1097.2
298.15 K, 2000 kPa, Pycnometric method | 1101.34
298.15 K, 9991.7 kPa, isochoric method | 1146.3
299.15 K, 2029.1 kPa, isochoric method | 1097.1
300.61 K, 39892 kPa, isochoric method | 1239.3
301.16 K, 3031.3 kPa, isochoric method | 1096.9
303.02 K, 3977.9 kPa, isochoric method | 1096.8
304.9 K, 24929 kPa, isochoric method | 1188.2
305.47 K, 5182.3 kPa, isochoric method | 1096.6
306.32 K, 14776 kPa, isochoric method | 1145.7
312.45 K, 29920 kPa, isochoric method | 1187.5
315.08 K, 9982 kPa, isochoric method | 1095.9
315.09 K, 19876 kPa, isochoric method | 1145
315.95 K, 2247.5 kPa, isochoric method | 1032.9
317.45 K, 2859.3 kPa, isochoric method | 1032.8
320.1 K, 34906 kPa, isochoric method | 1187
320.32 K, 4014.4 kPa, isochoric method | 1032.6
322.67 K, 4967.1 kPa, isochoric method | 1032.4
323.87 K, 24958 kPa, isochoric method | 1144.4
325.07 K, 14981 kPa, isochoric method | 1095.2
325.16 K, 5973.9 kPa, isochoric method | 1032.3
327.9 K, 39962 kPa, isochoric method | 1186.4
332.6 K, 29948 kPa, isochoric method | 1143.7
335.17 K, 2008.9 kPa, isochoric method | 935
335.17 K, 19964 kPa, isochoric method | 1094.5
335.18 K, 10007 kPa, isochoric method | 1031.6
338.63 K, 3007.2 kPa, isochoric method | 934.8
341.49 K, 35032 kPa, isochoric method | 1143.1
342.03 K, 3976.9 kPa, isochoric method | 934.7
345.34 K, 25002 kPa, isochoric method | 1093.8
345.42 K, 4963.5 kPa, isochoric method | 934.5
347.2 K, 14893 kPa, isochoric method | 1030.8
350.33 K, 40033 kPa, isochoric method | 1142.5
353.14 K, 28869 kPa, isochoric method | 1093.3
353.15 K, 7224.7 kPa, isochoric method | 934
353.15 K, 17361 kPa, isochoric method | 1030.5

FC(F)=C(F)C(F)(F)F [hexafluoropropene]
Details | mass density [kg/m3]
208.66 K, 4440.7 kPa, isochoric method | 1666.3
212.77 K, 9785.5 kPa, isochoric method | 1665.7
217.15 K, 15655 kPa, isochoric method | 1665.1
220.5 K, 19878 kPa, isochoric method | 1664.7
220.7 K, 1017.1 kPa, isochoric method | 1618
221.58 K, 1995.2 kPa, isochoric method | 1617.9
222.5 K, 3032.3 kPa, isochoric method | 1617.8
223.26 K, 3878.8 kPa, isochoric method | 1617.7
224.31 K, 5176.5 kPa, isochoric method | 1617.5
224.32 K, 25024 kPa, isochoric method | 1664.2
228.25 K, 29978 kPa, isochoric method | 1663.7
228.76 K, 10104 kPa, isochoric method | 1616.9
232.02 K, 34664 kPa, isochoric method | 1663.2
233.17 K, 15012 kPa, isochoric method | 1616.4
236.26 K, 39771 kPa, isochoric method | 1662.7
237.66 K, 1075 kPa, isochoric method | 1560.8
237.67 K, 20020 kPa, isochoric method | 1615.8
238.62 K, 2000 kPa, isochoric method | 1560.7
239.74 K, 3075.4 kPa, isochoric method | 1560.5
240.8 K, 4091.1 kPa, isochoric method | 1560.4
241.91 K, 5150.8 kPa, isochoric method | 1560.2
241.95 K, 25034 kPa, isochoric method | 1615.3
247.02 K, 10041 kPa, isochoric method | 1559.6
247.52 K, 30945 kPa, isochoric method | 1614.6
251.36 K, 35209 kPa, isochoric method | 1614.2
252.41 K, 1004.8 kPa, isochoric method | 1507.5
252.51 K, 15276 kPa, isochoric method | 1559
253.78 K, 2142.1 kPa, isochoric method | 1507.3
254.97 K, 3117.5 kPa, isochoric method | 1507.2
255.93 K, 40226 kPa, isochoric method | 1613.6
256.1 K, 4061.6 kPa, isochoric method | 1507
257.5 K, 5226.1 kPa, isochoric method | 1506.9
257.54 K, 20028 kPa, isochoric method | 1558.4
262.84 K, 25067 kPa, isochoric method | 1557.8
268.15 K, 30042 kPa, isochoric method | 1557.2
269.46 K, 1140.2 kPa, isochoric method | 1444.5
269.51 K, 15216 kPa, isochoric method | 1506
270.71 K, 2007.3 kPa, isochoric method | 1444.3
272.14 K, 2994.8 kPa, isochoric method | 1444.2
273.5 K, 34978 kPa, isochoric method | 1556.7
273.87 K, 4188.8 kPa, isochoric method | 1444
275.36 K, 5220.9 kPa, isochoric method | 1443.8
275.38 K, 20012 kPa, isochoric method | 1505.4
278.75 K, 39847 kPa, isochoric method | 1556.1
281.62 K, 25020 kPa, isochoric method | 1504.3
282.66 K, 10250 kPa, isochoric method | 1443.1
282.84 K, 1039.3 kPa, isochoric method | 1388.2
284.56 K, 2050.1 kPa, isochoric method | 1388.1
286.25 K, 2995.1 kPa, isochoric method | 1387.9
287.65 K, 30072 kPa, isochoric method | 1504.2
287.98 K, 4010.4 kPa, isochoric method | 1387.7
289.44 K, 14959 kPa, isochoric method | 1442.4
289.66 K, 4997.4 kPa, isochoric method | 1387.6
294.12 K, 35270 kPa, isochoric method | 1503.5
296.97 K, 20036 kPa, isochoric method | 1441.7
297.23 K, 942.2 kPa, isochoric method | 1322
298.15 K, 2000 kPa, Pycnometric method | 1326.6
298.15 K, 10003 kPa, isochoric method | 1386.8
299.3 K, 1958.7 kPa, isochoric method | 1321.8
300.38 K, 40273 kPa, isochoric method | 1502.9
301.47 K, 3021.5 kPa, isochoric method | 1321.6
303.44 K, 3963.5 kPa, isochoric method | 1321.4
304.43 K, 25120 kPa, isochoric method | 1441
305.51 K, 4983.5 kPa, isochoric method | 1321.2
307 K, 15256 kPa, isochoric method | 1385.9
311.59 K, 29972 kPa, isochoric method | 1440.3
315.78 K, 2033.9 kPa, isochoric method | 1237.1
315.78 K, 9999.6 kPa, isochoric method | 1320.4
315.78 K, 20405 kPa, isochoric method | 1385.1
317.54 K, 2708.8 kPa, isochoric method | 1237
319.05 K, 35044 kPa, isochoric method | 1439.6
320.92 K, 3993.8 kPa, isochoric method | 1236.7
323.55 K, 4999.4 kPa, isochoric method | 1236.5
324.09 K, 25251 kPa, isochoric method | 1384.4
326.52 K, 40028 kPa, isochoric method | 1438.9
326.95 K, 15464 kPa, isochoric method | 1319.4
332.97 K, 30410 kPa, isochoric method | 1383.6
335.66 K, 19726 kPa, isochoric method | 1318.7
336.51 K, 9979.8 kPa, isochoric method | 1235.5
340.74 K, 34883 kPa, isochoric method | 1382.9
345.95 K, 24723 kPa, isochoric method | 1317.8
352.67 K, 41719 kPa, isochoric method | 1381.9
353.15 K, 16419 kPa, isochoric method | 1234.2
353.15 K, 28219 kPa, isochoric method | 1317.2

— the NIST ThermoML archive (doi:10.1021/je3009304)
